From paper PMC5749684, “Tetrahydrocarbazoles are a novel class of potent P-type ATPase inhibitors with antifungal activity” (PLoS ONE, 2018)
In brackets after ≈: the same amount, converted by molar mass.

Experiments:
HepG2 cells = experiment: Hep G2 viability assay (XTT); format: cell-based, human; settings: HepG2 proliferation, 72 h, XTT
Method: In each well of a 96 well tissue culture plate (Greiner, catalog number GR-655180) 10,000 human hepatocyte HepG2 cells (Sigma-Aldrich, catalog number 85011430) were plated in 200 μL growth media (EMEM (Sigma-Aldrich, catalog number M2279), 2 mM L-Glutamine (Biological Industries, catalog number 03-020-1B), 1% non-essential amino acids (Biosera, catalog number XC-E1154/100), 10% fetal bovine serum (Biological Industries, catalog number BI-04-007-1A)), and incubated overnight at 37°C and 5% CO2. The following day, fresh growth media plus 2 μL compound in DMSO was added. The plate was incubated for a further 72 h at 37°C and 5% CO2. The media was replaced with 100 μL freshly prepared 0.5 mg/mL XTT sodium salt solution (Sigma-Aldrich, catalog number X4251) in RPMI-1640 (Sigma-Aldrich, catalog number R7509) with 3.83 μg/mL phenazine methosulfate (Sigma-Aldrich, catalog number P9625) and incubated 2–3 h at 37°C and 5% CO2. The color reaction was measured on a Victor X5 plate reader (Perkin-Elmer) at OD450, and the half maximal effective concentration (EC50) was calculated indicating the potency of tetrahydrocarbazole derivatives to inhibit HepG2 cell growth. Tamoxifen (Sigma-Aldrich, catalog number 85256) was used as a positive control compound while DMSO served as a negative control.

Candida albicans SC5314 = experiment: Fungal growth inhibition, C. albicans SC5314; format: cell-based; settings: MIC defined as 50% growth inhibition, 24 h, n = 3–6
Excerpt: (§1) Fungal isolates were purchased from American Type Culture Collection, except for C. glabrata strain Cg003, which was kindly provided by Julius Subik, Comenius University in Bratislava, Slovak Republic. Cg003 is a clinical isolate, characterized to be resistant to fluconazole and itraconazole due to overexpression of the multidrug resistance efflux pumps Cdr1p and Cdr2p. Saccharomyces cerevisiae (ATCC 9763), Candida albicans (ATCC 90028), Candida albicans (SC5314), Candida glabrata (ATCC 90030), Candida glabrata (Cg003) and Candida krusei (ATCC 6258) were grown in Sabouraud broth (40 g/L D-glucose, 10 g/L peptone, pH 5.6) or YPD (10 g/L yeast extract, 20 g/L Bacto-peptone, 20 g/L glucose) medium to mid log phase, aliquoted into 20% (v/v) glycerol and cryopreserved as stocks at -80°C. For each growth assay, cells from these stocks were diluted in sterile water to OD600 = 0.025, which corresponds to a final starting inoculum of 0.5–2.5 x 10^5 CFU/mL. Growth assays were carried out by pipetting 3 μL compound dissolved in DMSO, 100 μL cell suspension and 97 μL 2 x RPMI media (20.8 g/L RPMI-1640 (Sigma-Aldrich catalog number R6504) 330 mM MOPS, 36 g/L glucose) into a microtiter plate and incubating for 24 h at 34°C, followed by OD measurement at 490 nm. The minimum inhibitory concentration (MIC) was defined as 50% growth inhibition of the microorganism as this measurement best represented the antifungal activity of the compounds. Standard errors were typically below 5%.

[1] = test system: Saccharomyces cerevisiae ATCC 9763; experiment: Fungal growth inhibition, S. cerevisiae ATCC 9763; format: cell-based; settings: ATCC9763, MIC defined as 50% growth inhibition, 24 h, n = 3–6
Excerpt: as §1

Candida krusei ATCC 6258 = experiment: Fungal growth inhibition, C. krusei; format: cell-based; settings: Pichia kudriavzevii, ATCC6258; MIC defined as 50% growth inhibition, 24 h, n = 3–6
Excerpt: as §1

[2] = test system: C. albicans (SC5314) cells; experiment: Time-kill assay; format: cell-based, Candida albicans; settings: AMB 0.54 μM, VRC 2.8 μM, 6 and 8 20 μM
Method: C. albicans (SC5314) cells (1 x 10^5 CFU/mL) were incubated in 10 mL RPMI-1640 media at 30°C with gentle agitation (150 rpm) in the presence of amphotericin B (0.5 μM), voriconazole (2.8 μM) or tetrahydrocarbazole compound (20 μM). At the indicated time points (0, 3, 6, and 24 h), a 100 μL aliquot was removed, serially diluted (10 fold) in saline (0.9% NaCl), and 30 μL aliquots were spread on YPD agar. CFU were counted after incubation at 30°C for 48 h. C. albicans cells treated with DMSO (1%, v/v) served as a control. 50 CFU/mL was selected as the lower limit of quantitation.

C. albicans cells = experiment: Post-antifungal effect determination; format: cell-based, Candida albicans; settings: 1 h exposure of C. albicans; AMB 0.54 μM, VRC 2.8 μM, 6 and 8 20 μM
Method: The post-antifungal effect (PAFE) of antifungal drugs on C. albicans was determined as described by others, with modifications. Briefly, 2 × 10^6 CFU/mL C. albicans cells were incubated in 1 mL RPMI-1640 media for 1 h at 30°C with gentle agitation in the presence of amphotericin B (0.54 μM), voriconazole (2.8 μM) or tetrahydrocarbazole compound (20 μM). Cells were subsequently washed in RPMI media 3 times by centrifugation (3 minutes, 5,000 x g) and finally re-suspended in 1 mL fresh RPMI medium and incubated at 30°C for 24 h. At various time intervals, a 100 μL aliquot was removed, serially diluted (10-fold) in saline (0.9% NaCl), and 30 μL aliquots were spread on YPD agar. The agar plates were incubated at 30°C for 48 h and the number of CFU/mL of culture was determined. C. albicans cells treated with DMSO (1%, v/v) served as a control. The number of CFU/mL obtained at specified time intervals was plotted against time (h) following compound removal. An increase in the CFU/mL of culture signifies growth and multiplication of yeast cells. The duration required for the antifungal drug-treated cells to recover from the inhibitory effect of the drug as indicated by an increase in CFU/mL of culture is defined as the PAFE.

Candida glabrata Cg003 = experiment: microbe, parasite or virus in culture; format: cell-based; settings: Nakaseomyces glabratus, CG003, 24 h, read-out: Growth inhibition MIC Candida glabrata Cg003
Method: as §1, with “Cg003 is a clinical isolate, characterized to be resistant to fluconazole and itraconazole due to overexpression of the multidrug resistance efflux pumps Cdr1p and Cdr2p.” left out, “nm.” for “nm. The minimum inhibitory concentration (MIC) was defined as 50% growth inhibition of the microorganism as this measurement best represented the antifungal activity of the compounds. Standard errors were typically below 5%.”

[3] = test system: Candida glabrata ATCC 90030; experiment: Fungal growth inhibition, C. glabrata ATCC 90030; format: cell-based; settings: Nakaseomyces glabratus, ATCC90030; MIC defined as 50% growth inhibition, 24 h, n = 3–6
Excerpt: as §1

Na^+,K^+-ATPase = test system: Na^+,K^+-ATPase; set-up: method as in PMID 19289472; settings: cited from earlier work
Candida albicans = experiment: Fungal growth inhibition, C. albicans (library hits, Tables A and B); format: cell-based; settings: ATCC90028, read-out: Growth inhibition MIC Candida albicans
Method: (§2) The compound libraries were purchased from Enamine Ltd, Ukraine and Chembridge Corp, USA. Library screening was performed in 96 well plates format and each compound was screened in the ATP hydrolysis assay at a final concentration of 20 μM. DMSO was used to determine the maximal ATPase activity and a blank with ATP in absence of Pma1 protein was used to determine the level of spontaneous ATP hydrolysis and used to determine background level. The percentage of compound inhibition was evaluated by subtracting the blank from each data point and normalizing to maximal ATP hydrolysis activity.
as §1, with “Cg003 is a clinical isolate, characterized to be resistant to fluconazole and itraconazole due to overexpression of the multidrug resistance efflux pumps Cdr1p and Cdr2p.” left out, “nm.” for “nm. The minimum inhibitory concentration (MIC) was defined as 50% growth inhibition of the microorganism as this measurement best represented the antifungal activity of the compounds. Standard errors were typically below 5%.”

Saccharomyces cerevisiae = experiment: Fungal growth inhibition, S. cerevisiae (library hits, Table A); format: cell-based; settings: MIC defined as 50% growth inhibition, n = 3, baker's yeast
Method: as §2
as §1, with “Cg003 is a clinical isolate, characterized to be resistant to fluconazole and itraconazole due to overexpression of the multidrug resistance efflux pumps Cdr1p and Cdr2p.” left out, “nm.” for “nm. The minimum inhibitory concentration (MIC) was defined as 50% growth inhibition of the microorganism as this measurement best represented the antifungal activity of the compounds. Standard errors were typically below 5%.”

[4] = test system: HEK293 cells expressing the familial Alzheimer’s disease (FAD)-linked presenilin 1 mutation; set-up: method as in PMID 25514752; settings: HEK293 cells expressing FAD-linked presenilin 1 mutation; cited from earlier work
[5] = target: T1, Saccharomyces cerevisiae Pma1 (Saccharomyces cerevisiae, UniProt P05030); experiment: ATP hydrolysis inhibition, S. cerevisiae Pma1; format: biochemical; settings: ATP hydrolysis IC50 Saccharomyces cerevisiae Pma1, library hit compounds, n = 3
T1 construct: containing the full-length cDNA of the S. cerevisiae plasma membrane H^+-ATPase isoform PMA1; made in house; host or cells: Saccharomyces cerevisiae RS72
T1 sequence (P05030 whole entry, canonical isoform): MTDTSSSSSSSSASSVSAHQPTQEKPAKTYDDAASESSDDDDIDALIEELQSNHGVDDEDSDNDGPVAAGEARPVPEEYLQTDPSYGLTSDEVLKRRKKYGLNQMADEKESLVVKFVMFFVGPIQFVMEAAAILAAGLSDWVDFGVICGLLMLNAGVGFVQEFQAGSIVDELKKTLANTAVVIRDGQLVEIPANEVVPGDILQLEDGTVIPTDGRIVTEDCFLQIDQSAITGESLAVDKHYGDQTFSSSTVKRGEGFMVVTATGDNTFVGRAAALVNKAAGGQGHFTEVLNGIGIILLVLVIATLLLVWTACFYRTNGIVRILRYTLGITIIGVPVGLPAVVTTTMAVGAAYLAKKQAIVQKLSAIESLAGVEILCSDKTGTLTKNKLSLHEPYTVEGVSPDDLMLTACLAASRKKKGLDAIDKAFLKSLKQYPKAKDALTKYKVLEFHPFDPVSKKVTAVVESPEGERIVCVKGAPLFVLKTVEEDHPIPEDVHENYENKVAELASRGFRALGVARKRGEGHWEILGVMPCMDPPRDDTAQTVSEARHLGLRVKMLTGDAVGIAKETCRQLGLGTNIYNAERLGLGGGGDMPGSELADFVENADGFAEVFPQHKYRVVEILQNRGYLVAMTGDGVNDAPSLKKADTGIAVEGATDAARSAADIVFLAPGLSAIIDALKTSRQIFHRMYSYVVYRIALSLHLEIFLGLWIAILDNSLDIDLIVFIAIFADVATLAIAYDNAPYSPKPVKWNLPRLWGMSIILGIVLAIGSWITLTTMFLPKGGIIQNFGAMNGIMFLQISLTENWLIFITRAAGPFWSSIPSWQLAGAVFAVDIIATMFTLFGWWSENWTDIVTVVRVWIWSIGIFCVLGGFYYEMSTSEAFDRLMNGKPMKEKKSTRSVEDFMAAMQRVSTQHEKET
Method: as §2, with “activity. […] Pma1 inhibitory hit compounds (IC50 <20 μM) with antifungal activity on both S. cerevisiae and C. albicans (MIC <100 μM) were re-purchased and re-evaluated to confirm the potency and identity of the compound.” for “activity.”
Plasma membranes containing Pma1 were isolated from Saccharomyces cerevisiae RS72 cells containing the full-length cDNA of the S. cerevisiae plasma membrane H^+-ATPase isoform PMA1 under control of the PMA1 promoter as described.
ATPase activity was determined by measuring the amount of liberated phosphate from ATP hydrolysis. The ATPase assay was performed in 96 well plates in a final reaction volume of 60 μL. 0.1–0.2 μg/well of DOC extracted SERCA membrane or the Na^+,K^+-ATPase was used, while 1–2.5 μg/well was used of the Pma1 membrane preparation. Reactions, including protein membrane preparation and various concentrations of exogenously added compounds, were conducted in the following buffers; Pma1 buffer: 17.5 mM MOPS-NaOH pH 7, 7 mM MgSO4, 44 mM KNO3 (vacuolar ATPase inhibitor), 22 mM NaN3 (mitochondrial ATPase inhibitor), 0.22 mM Na2MoO4 (acid phosphatase inhibitor); SERCA buffer: 9 mM MOPS-NaOH pH 7, 2.7 mM MgCl2, 0.1 mM CaCl2 and 72 mM KCl. Na^+,K^+-ATPase buffer: 30 mM MOPS-NaOH pH 7, 40 mM NaCl, 4 mM MgCl2 and 20 mM KCl. Reactions were initiated by the addition of Na-ATP to a final concentration of 2.5 mM (Pma1 and Na^+,K^+-ATPase) or 5 mM (SERCA), followed by 30 minutes incubation at 30°C. […] Absorption was measured at 860 nm after additional 30 minutes incubation at RT.

Row | SMILES | MIC (Candida albicans SC5314) | MIC [1] | MIC (Candida krusei ATCC 6258) | MIC (Candida glabrata Cg003) | MIC [3] | MIC (Candida albicans) | MIC (Saccharomyces cerevisiae) | IC50 [5] | other results
1 | C[C@@H]1[C@H](O)[C@@H](C)/C=C/C=C/C=C/C=C/C=C/C=C/C=C/[C@H](O[C@@H]2O[C@H](C)[C@@H](O)[C@H](N)[C@@H]2O)C[C@@H]2O[C@](O)(C[C@@H](O)C[C@@H](O)[C@H](O)CC[C@@H](O)C[C@@H](O)CC(=O)O[C@H]1C)C[C@H](O)[C@H]2C(=O)O [AMB, amphotericin B, reference compound] | 0.1 ± 0.04 µM (≈ 0.0924 µg/mL) | 0.02 ± 0.01 µM (≈ 0.0185 µg/mL) | 0.44 ± 0.34 µM (≈ 0.407 µg/mL) | 0.18 ± 0.08 µM (≈ 0.166 µg/mL) | 0.1 ± 0.04 µM (≈ 0.0924 µg/mL) |  |  |  | EC50 (HepG2 cells): 0.69 ± 0.01 µM; EC50 (HepG2 cells; Homo sapiens, HepG2, 72 h): < 1 µM; Fungicidal or fungistatic activity in time-kill (in words) [2]: fungicidal after 3 h exposure; Post-antifungal effect (PAFE) (C. albicans cells): 7 h
2 | CC(=O)C1=C(O)[C@@H]2[C@H]3c4c[nH]c5cccc(c45)C[C@H]3C(C)(C)N2C1=O [CPA, cyclopiazonic acid] |  |  |  |  |  |  |  |  | Activity against Na^+,K^+-ATPase (in words) (Na^+,K^+-ATPase): inactivity
3 | Brc1ccc2[nH]c3c(c2c1)CCCC3NCCc1ccccc1 (centres unmarked) [Compound 1] |  |  |  |  |  | 20 µM (≈ 7.39 µg/mL) | 10 µM (≈ 3.69 µg/mL) | 18.2 ± 4.7 µM | Effect on enhanced calcium release from the endoplasmic reticulum (in words) [4]: reduce the enhanced calcium release
4 | Brc1ccc2[nH]c3c(c2c1)CCCC3NCc1ccccc1 (centres unmarked) [Compound 2] |  |  |  |  |  | 10 µM (≈ 3.55 µg/mL) | 12 µM (≈ 4.26 µg/mL) | 12.9 ± 3.2 µM | Effect on enhanced calcium release from the endoplasmic reticulum (in words) [4]: reduce the enhanced calcium release
5 | Cc1ccc2[nH]c3c(c2c1)CCCC3NCc1ccc(Cl)cc1 (centres unmarked) [Compound 3] |  |  |  |  |  | 5 µM (≈ 1.62 µg/mL) | 12 µM (≈ 3.9 µg/mL) | 14.8 ± 3.5 µM | 
6 | OC(Cn1cncn1)(Cn1cncn1)c1ccc(F)cc1F [FLC, fluconazole, reference compound] | 0.75 ± 0.48 µM (≈ 0.23 µg/mL) | 20.7 ± 8.68 µM (≈ 6.33 µg/mL) | 67.2 ± 27 µM (≈ 20.6 µg/mL) | > 208 µM | 26.1 µM (≈ 8 µg/mL) |  |  |  | EC50 (HepG2 cells; Homo sapiens): > 50 µM
7 | C[C@@H](c1ncncc1F)[C@](O)(Cn1cncn1)c1ccc(F)cc1F [VRC, voriconazole, reference compound] | 0.03 ± 0.02 µM (≈ 0.0105 µg/mL) | 0.27 ± 0.19 µM (≈ 0.0943 µg/mL) | 1.02 ± 0.7 µM (≈ 0.356 µg/mL) | 6.11 ± 2.64 µM (≈ 2.13 µg/mL) | 0.61 ± 0.28 µM (≈ 0.213 µg/mL) |  |  |  | EC50 (HepG2 cells; Homo sapiens): > 50 µM; Fungicidal or fungistatic activity in time-kill (in words) [2]: fungistatic activity after both 3 and 24 h of incubation; Post-antifungal effect (PAFE) (C. albicans cells): no significant delay in growth
